In experiment [1] the test system is several phytopathogenic fungi. The experiment can be described thus: Liquid culture assays, summary over the fungi tested. The format is cell-based. Particulars: up to; Tables 2 and 3. As to the method:
Mycelia fragments or conidia suspensions of a fungus, prepared either freshly from liquid cultures of the fungus or from cryogenic storage, were directly mixed into nutrient broth.
A stock solution for compound of Formula I(a) and Formula I(b) was produced in DMSO (max. 10 mg/ml), which was diluted with water plus 0.025% Tween®20 to produce a 10× concentrated sample and 10 μl of this solution was pipetted into a microtiter plate (96-well format). The nutrient broth containing the fungal spores/mycelia fragments was then added to give an end concentration of the tested compound. The test plates were incubated in the dark at 24 °C and 96% rh. The inhibition of fungal growth was determined photometrically after 2-7 days, depending on the pathosystem, and percent antifungal activity relative to the untreated check was calculated.
The effect of the test compound (Formula I(a), I(b) and Lipopeptin A) was tested against the following fungi under the conditions as outlined above and specifically herein below: […]

Another experiment has as its system Puccinia recondita. As to the kind of experiment: Leaf disc mixture assay with malonomicin, Puccinia recondita, curative spray timing, 8 dpi. The format is in vivo, Puccinia recondita on wheat (cultivar Kanzler). The settings on record: compound of Formula I(a) lines 1-A to 2-D = 200, 100, 50, 25, 12.5, 6.25, 3.13, 0 ppm. On the procedure: A stock solution for the lipopeptide compound of Formula I(a) was produced in DMSO (max. 10 mg/ml). Malonomicin was produced according to Law et al, 2018 (Nature Catalys is |VOL 1|DECEMBER 2018|977-984). A stock solution of malonomicin was produced in water plus 0.025% Tween®20.
Assays to test efficacy of mixtures of compound of Formula I(a) in combination with malonomicin on the control of fungal pathogens in a leaf disc assay were designed for two 24well plates.
Table 22 and Table 23. Outline of 24well testplate (1) and testplate (2) including concentration of compounds sprayed per well. The upper number in the cell indicates compound of Formula I(a) concentration (ppm), the lower number malonomicin concentration (ppm). Column (1) holds a dilution series of compound of Formula I(a), row (2-D) hold a dilution series of malonomicin. Well 2-D-(1) represents an untreated check. This design was applied for tests including Puccinia recondita (EPPO code: PUCCRE) with preventive and curative spray timing.
A first set of master plates with 1× concentrated spray solution of the lipopeptide compound of Formula I(a) stock diluted in water with concentrations according to table 22, table 23, table 25 or table 26, respectively, was prepared. Each well contained 2% DMSO and 0.025% Tween20. Accordingly, a second set of master plates with 1× concentrated malonomicin stock diluted in water was prepared. Each well of the second set contained 0.025% Tween20. Leaf segments placed on agar in 24well plates were sprayed with 8 μl of solution from the master plate containing the lipopeptide compound of Formula I(a) and the leaf segments were let to dry, followed 2 hours later by 8 μl of solution from the master plate containing malonomicin. After second sprays had dried, leaf segments were infected with fungal spores to obtain a preventive application timing. Alternatively, leaf segments infected one day before spray of the compounds were used, resulting in a curative spray timing. In addition, several plates were produced where leaf segments were sprayed 2× in absence of test compound (with only DMSO and Tween20), representing the untreated check samples. For each leaf segment percent leaf coverage of disease symptoms was assessed. Percent leaf coverage reduction relative to the untreated check was calculated. Efficacy of the mixtures was tested in duplicate and on different fungal species. Reported efficacy values are the average of two replicate results.
Puccinia recondita (EPPO Code: PUCCRE) with Curative Spray Timing.
Wheat (cultivar Kanzler) leaf segments are placed on agar in multiwell plates (24-well format). The leaf disks are then inoculated with a spore suspension of the fungus. One day after inoculation the test solution is sprayed (8 ul per well). After appropriate incubation the activity of a compound is assessed 8 dpi (days after inoculation) as curative fungicidal activity

In a further experiment the test system is Fusarium culmorum. As to the kind of experiment: Liquid culture 96-well mixture assay with malonomicin, Fusarium culmorum, 72 hrs. It is filed as cell-based. Particulars: read-out: control of fungal growth (% reduction). On the procedure:
(§1) A stock solution for compound of Formula I(a) was produced in DMSO (max. 10 mg/ml). Malonomicin was produced according to Law et al, 2018 (Nature Catalys is |VOL 1|DECEMBER 2018|977-984). A stock solution of malonomicin was produced in water plus 0.025% Tween® 20.
(§2) Assays to test efficacy of mixtures of the lipopeptide compound of Formula I(a) in combination with malonomicin on the control of fungal pathogens in a liquid culture assay were designed for a 96well plate as outlined in table 1:
(§3) The 96 well plate design allows to compare disease control of the mixture with disease control of the respective single compound at the same rate.
(§4) A master plate with 10× concentrated solution of the compound stock solutions diluted in water plus 0.025% Tween® 20 was prepared. The concentration of DMSO (from the stock of compound of Formula (a)) and Tween® 20 was kept constant in all cells of the master plate. 10 μl was transferred from the master plate to a 96well test plate. The nutrient broth containing the fungal spores/mycelia fragments was then added to the test plate to give an end concentration of 1× for the tested compounds (as outlined in Table 8). The test plates were incubated in the dark at 24 °C and 96% rh. The inhibition of fungal growth was determined photometrically after ca 3 days, and percent fungal growth reduction relative to the untreated check was calculated.
Fusarium culmorum (EPPO Code: FUSACU)
Conidia of the fungus from cryogenic storage were directly mixed into nutrient broth (PDB: potato dextrose broth).

A further experiment concerns Sclerotinia sclerotiorum. The experiment can be described thus: Liquid culture 96-well mixture assay with malonomicin, Sclerotinia sclerotiorum, 72 hrs. It is filed as cell-based. Particulars: line H malonomicin alone, concentrations in Table 8. As to the method:
as §1, §2, §3, §4
Sclerotinia sclerotiorum (EPPO Code: SCLESC)
Mycelial fragments of the fungus prepared from a fresh liquid culture were directly mixed into nutrient broth (PDB: potato dextrose broth).

The test system of a further experiment is Pyricularia oryzae. The format is cell-based. The settings on record: line H malonomicin alone, concentrations in Table 8.
Setting [2] is: plate column (2), highest malonomicin concentration, lines A-G with compound of Formula I(a) dilution series.
Where [3] appears, read: plate column (3) of malonomicin dilution series, lines A-G with compound of Formula I(a).
Setting [4] is: plate column (4) of malonomicin dilution series, lines A-G with compound of Formula I(a).
Setting [5] is: plate column (5) of malonomicin dilution series, lines A-G with compound of Formula I(a).
The mark [6] stands for this setting: plate column (6) of malonomicin dilution series, lines A-G with compound of Formula I(a).
[7] abbreviates: plate column (7) of malonomicin dilution series, lines A-G with compound of Formula I(a).
Setting [8] is: plate column (8) of malonomicin dilution series, lines A-G with compound of Formula I(a).
[9] abbreviates: plate column (9) of malonomicin dilution series, lines A-G with compound of Formula I(a).
Where [10] appears, read: plate column (10) of malonomicin dilution series, lines A-G with compound of Formula I(a).
Setting [11] is: plate column (11), lowest malonomicin concentration, lines A-G with compound of Formula I(a).

Molecules are shown by their SMILES. Where two headings read alike, the source gives them in different places. Numbered stars: 1 amine (or outer) side, 2 acyl side, 3 side chain; on linkers, the order of the positions; unused ones are H or OH. Bridge positions count the residues as written; N and C are the ends. Square brackets hold non-standard residues; d marks the D form. Peptide text beside a SMILES is read from it. * marks the point of attachment. X1 = NC(=O)CC(O)C(N[*:1])C(=O)[*:2]; NMeF = CN[CH](Cc1ccccc1)C(=O)O; NMeN = CN[CH](CC(N)=O)C(=O)O; X2 = CCC(C)CCCCCCCCCCC(=O)*

With `CCC(C)CCCCCCCCCCC(=O)NC1C(=O)NC(CC(=O)O)C(=O)NC(C(O)CC(N)=O)C(=O)NC(CO)C(=O)N(C)C(CC(N)=O)C(=O)N(C)C(Cc2ccccc2)C(=O)NC(CCC(N)=O)C(=O)NC(CCC(=O)O)C(=O)OC1C` (stereo not drawn) [Formula I(b)] (X2-TD[X1]S[NMeN][NMeF]QE; ester 1-C; configuration not given here), in experiment [1], the “control of phytopathogenic fungi” value was “up to 100%”.

Regarding `NC[C@@H]1NC(=O)C(C(=O)CC(NC(=O)[C@@H](N)CO)(C(=O)O)C(=O)O)=C1O` [malonomicin, {[(2S)-2-amino-3-hydroxypropanoyl]amino}{2-[(5S)-5-(aminomethyl)-4-hydroxy-2-oxo-2,5-dihydro-1H-pyrrol-3-yl]-2-oxoethyl}malonic acid], the “control of fungal growth (% reduction of symtoms on the leaf segment as compared to untreated check)” value amounted to 100% with Puccinia recondita (column (2): malonomicin 200 ppm); 100% with Puccinia recondita (column (3): malonomicin 20 ppm); 100% with Puccinia recondita (column (4): malonomicin 6.67 ppm); 70% with Puccinia recondita (column (5): malonomicin 2.22 ppm); 35% with Puccinia recondita (column (6): malonomicin 0.74 ppm). Moreover, the inhibition of growth at 1 ppm in the experiment on Fusarium culmorum (malonomicin 1.00 ppm) came to 0%. Also, the inhibition of growth at 3 ppm with Fusarium culmorum (malonomicin 3.00 ppm) is 0%. For the same molecule, the inhibition of growth at 7.81 ppm in the experiment on Fusarium culmorum (malonomicin 7.81 ppm) was determined as 0%. Besides, the inhibition of growth at 15.63 ppm in the experiment on Fusarium culmorum (malonomicin 15.63 ppm) amounted to 0%. Moreover, the inhibition of growth at 31.25 ppm with Fusarium culmorum (malonomicin 31.25 ppm) stood at 0%. Further, in the experiment on Fusarium culmorum (malonomicin 62.5 ppm), the inhibition of growth at 62.5 ppm worked out at 0%. Further, the inhibition of growth at 125 ppm with Fusarium culmorum (malonomicin 125 ppm) was 20%. Besides, the inhibition of growth at 250 ppm with Fusarium culmorum (malonomicin 250 ppm) worked out at 20%. Further, the inhibition of growth at 500 ppm with Fusarium culmorum (malonomicin 500 ppm) was found to be 20%. In addition, the inhibition of growth at 1000 ppm with Fusarium culmorum (malonomicin 1000 ppm) was determined as 20%. The “control of fungal growth (% reduction of growth in the test well as compared to untreated check)” value in the experiment with Sclerotinia sclerotiorum (setting [2]) is 90%; in the experiment on Sclerotinia sclerotiorum (setting [3]) it was 90%; in the experiment with Sclerotinia sclerotiorum (setting [4]), 90%; with Sclerotinia sclerotiorum (setting [5]) it was 70%; in the experiment with Sclerotinia sclerotiorum (setting [6]) it was 50%; with Sclerotinia sclerotiorum (setting [7]) it was 20%. The “control of fungal growth (% reduction of growth in the test well as compared to untreated check)” value worked out at 0% in the experiment with Sclerotinia sclerotiorum (setting [8]); 0% with Sclerotinia sclerotiorum (setting [9]); 0% with Sclerotinia sclerotiorum (setting [10]); 0% in the experiment with Sclerotinia sclerotiorum (setting [11]); 90% with Pyricularia oryzae (setting [2]); 70% in the experiment with Pyricularia oryzae (setting [3]). Besides, the “control of fungal growth (% reduction of growth in the test well as compared to untreated check)” value in the experiment on Pyricularia oryzae (setting [4]) was 70%; in the experiment with Pyricularia oryzae (setting [5]) it was 50%; in the experiment on Pyricularia oryzae (setting [6]), 50%; in the experiment on Pyricularia oryzae (setting [7]), 20%; in the experiment on Pyricularia oryzae (setting [8]), 20%; with Pyricularia oryzae (setting [9]) it was 0%. Also, the “control of fungal growth (% reduction of growth in the test well as compared to untreated check)” value in the experiment with Pyricularia oryzae (setting [10]) and in the experiment with Pyricularia oryzae (setting [11]) was 0% each time.

The values are drawn from US20260347403A1, “FUNGICIDAL COMPOUND” (priority 2022, published 2026).
